For experiment [1], the target named is T1, non-phosphorylated c-ABL kinase domain (Homo sapiens, UniProt P00519).
T1 construct: phosphorylated and non-phosphorylated c-ABL kinase domain; purchased DiscoverRx Corporation (KinomeScan platform)
T1 sequence (P00519 242-493 limits assumed): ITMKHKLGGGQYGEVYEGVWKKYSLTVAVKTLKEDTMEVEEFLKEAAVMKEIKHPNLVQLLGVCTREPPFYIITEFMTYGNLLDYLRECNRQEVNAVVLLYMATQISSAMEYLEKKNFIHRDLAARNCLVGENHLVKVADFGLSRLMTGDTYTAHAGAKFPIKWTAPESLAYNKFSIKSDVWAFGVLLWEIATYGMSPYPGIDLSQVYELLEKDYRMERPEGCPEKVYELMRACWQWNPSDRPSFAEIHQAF
The experiment can be described thus: KinomeScan in vitro binding affinity (Kd), non-phosphorylated c-ABL kinase domain. Here is the method:
(§1) PROTAC in vitro binding affinities (Kd) to phosphorylated and non-phosphorylated c-ABL kinase domain were determined using the KinomeScan platform (DiscoverRx Corporation). The compounds were solubilized in DMSO and sent to DiscoverRx Corporation as a 10 μM stock solution.

Experiment [2] concerns the target T2, phosphorylated c-ABL kinase domain (Homo sapiens, UniProt P00519).
T2 construct: phosphorylated and non-phosphorylated c-ABL kinase domain; purchased DiscoverRx Corporation (KinomeScan platform)
T2 sequence (P00519 242-493 limits assumed): T1 sequence (P00519 242-493 limits assumed)
The experiment is described as follows: KinomeScan in vitro binding affinity (Kd), phosphorylated c-ABL kinase domain. On the procedure: as §1

The mark [3] stands for this setting: Table 1, ABL kinase domain, read-out: ABL (non-phosphorylated) affinity.
Setting [4] is: Table 1, ABL kinase domain, read-out: ABL (phosphorylated) affinity.
Setting [5] is: Table 2, read-out: ABL (non-phosphorylated).
[6] abbreviates: Table 2, read-out: ABL (phosphorylated).

Like-named read-outs stand apart in the source and are kept apart here.

Among the data in patent US9938264B2, “Proteolysis targeting chimera compounds and methods of preparing and using same” (YALE UNIVERSITY, priority 2015, dated 2018) are Kd values, retold here.

`COc1cc(Nc2c(C#N)cnc3cc(OCCCN4CCN(CCCCCCOCCOCCOCCCCCC(=O)N[C@H](C(=O)N5C[C@H](O)C[C@H]5C(=O)NCc5ccc(-c6scnc6C)cc5)C(C)(C)C)CC4)c(OC)cc23)c(Cl)cc1Cl` [BOS-6-2-2-6-VHL, (2S,4R)-1-((S)-2-(tert-butyl)-22-(4-(3-((3-cyano-4-((2,4-dichloro-5-methoxyphenyl)amino)-6-methoxyquinolin-7-yl)oxy)propyl)piperazin-1-yl)-4-oxo-10,13,16-trioxa-3-azadocosanoyl)-4-hydroxy-N-(4-(4-methylthiazol-5-yl)benzyl)pyrrolidine-2-carboxamide]: the Kd in experiment [1] (setting [3]) was determined as 1.4 nM; in experiment [2] (setting [4]), 0.63 nM.
`Cc1ccc(NC(=O)c2ccc(CN3CCN(CCCCCCOCCOCCOCCOCCOCCOCC(=O)N[C@H](C(=O)N4C[C@H](O)C[C@H]4C(=O)NCc4ccc(-c5scnc5C)cc4)C(C)(C)C)CC3)cc2)cc1Nc1nccc(-c2cccnc2)n1` [IMA-6-(2-)5-2-VHL, (2S,4R)-1-((S)-2-(tert-butyl)-27-(4-(4-((4-methyl-3-((4-(pyridin-3-yl)pyrimidin-2-yl)amino)phenyl)carbamoyl)benzyl)piperazin-1-yl)-4-oxo-6,9,12,15,18,21-hexaoxa-3-azaheptacosanoyl)-4-hydroxy-N-(4-(4-methylthiazol-5-yl)benzyl)pyrrolidine-2-carboxamide]: the values for the Kd in experiment [1] (setting [5]) and in experiment [2] (setting [6]) were 1.7 nM and 35 nM, respectively.
For `Cc1nc(Nc2ncc(C(=O)Nc3c(C)cccc3Cl)s2)cc(N2CCN(CCCCCCOCCCCCOCCCCCC(=O)Nc3cccc4c3C(=O)N(C3CCC(=O)NC3=O)C4=O)CC2)n1` (stereo not shown) [DAS-6-5-6-CRBN, N-(2-chloro-6-methylphenyl)-2-((6-(4-(6-((5-((6-((2-(2,6-dioxopiperidin-3-yl)-1,3-dioxoisoindolin-4-yl)amino)-6-oxohexyl)oxy)pentyl)oxy)hexyl)piperazin-1-yl)-2-methylpyrimidin-4-yl)amino)thiazole-5-carboxamide], in that order: 1.3 nM and 1.4 nM.
For `COc1cc(Nc2c(C#N)cnc3cc(OCCCN4CCN(CCCCCCOCCCCCOCCCCCC(=O)N[C@H](C(=O)N5C[C@H](O)C[C@H]5C(=O)NCc5ccc(-c6scnc6C)cc5)C(C)(C)C)CC4)c(OC)cc23)c(Cl)cc1Cl` [BOS-6-5-6-VHL, (2S,4R)-1-((S)-2-(6-((5-((6-(4-(3-((3-cyano-4-((2,4-dichloro-5-methoxyphenyl)amino)-6-methoxyquinolin-7-yl)oxy)propyl)piperazin-1-yl)hexyl)oxy)pentyl)oxy)hexanamido)-3,3-dimethylbutanoyl)-4-hydroxy-N-(4-(4-methylthiazol-5-yl)benzyl)pyrrolidine-2-carboxamide], the Kd in experiment [1] (setting [5]) was found to be 4.6 nM; in experiment [2] (setting [6]), 1.5 nM.
Take `COc1cc(Nc2c(C#N)cnc3cc(OCCCN4CCN(CCCCCCOCCOCCOCCCCCC(=O)Nc5cccc6c5C(=O)N(C5CCC(=O)NC5=O)C6=O)CC4)c(OC)cc23)c(Cl)cc1Cl` (stereo not shown) [BOS-6-2-2-6-CRBN, 6-(2-(2-((6-(4-(3-((3-cyano-4-((2,4-dichloro-5-methoxyphenyl)amino)-6-methoxyquinolin-7-yl)oxy)propyl)piperazin-1-yl)hexyl)oxy)ethoxy)ethoxy)-N-(2-(2,6-dioxopiperidin-3-yl)-1,3-dioxoisoindolin-4-yl)hexanamide]: the results for the Kd in experiment [1] (setting [5]) and in experiment [2] (setting [6]) were 0.91 nM and 0.55 nM, respectively.
On to `Cc1ccc(NC(=O)c2ccc(CN3CCN(CCCCCCOCCOCCOCCCCCC(=O)Nc4cccc5c4C(=O)N(C4CCC(=O)NC4=O)C5=O)CC3)cc2)cc1Nc1nccc(-c2cccnc2)n1` (stereo not shown) [IMA-6-2-2-6-CRBN, 4-((4-(6-(2-(2-((6-((2-(2,6-dioxopiperidin-3-yl)-1,3-dioxoisoindolin-4-yl)amino)-6-oxohexyl)oxy)ethoxy)ethoxy)hexyl)piperazin-1-yl)methyl)-N-(4-methyl-3-((4-(pyridin-3-yl)pyrimidin-2-yl)amino)phenyl)benzamide], for which the values for the Kd in experiment [1] (setting [3]) and in experiment [2] (setting [4]) were 6.2 nM and 110 nM, respectively.
`Cc1ccc(NC(=O)c2ccc(CN3CCN(CCCCCCOCCCCCOCCCCCC(=O)N[C@H](C(=O)N4C[C@H](O)C[C@H]4C(=O)NCc4ccc(-c5scnc5C)cc4)C(C)(C)C)CC3)cc2)cc1Nc1nccc(-c2cccnc2)n1` [IMA-6-5-6-VHL, (2S,4R)-1-((S)-3,3-dimethyl-2-(6-((5-((6-(4-(4-((4-methyl-3-((4-(pyridin-3-yl)pyrimidin-2-yl)amino)phenyl)carbamoyl)benzyl)piperazin-1-yl)hexyl)oxy)pentyl)oxy)hexanamido)butanoyl)-4-hydroxy-N-(4-(4-methylthiazol-5-yl)benzyl)pyrrolidine-2-carboxamide]: the Kd was 19 nM in experiment [1] (setting [5]) and 46 nM in experiment [2] (setting [6]).
In the same order, the values of `COc1cc(Nc2c(C#N)cnc3cc(OCCCN4CCN(CCCCCCOCCCCCOCCCCCC(=O)Nc5cccc6c5C(=O)N(C5CCC(=O)NC5=O)C6=O)CC4)c(OC)cc23)c(Cl)cc1Cl` (stereo not shown) [BOS-6-5-6-CRBN, 6-((5-((6-(4-(3-((3-cyano-4-((2,4-dichloro-5-methoxyphenyl)amino)-6-methoxyquinolin-7-yl)oxy)propyl)piperazin-1-yl)hexyl)oxy)pentyl)oxy)-N-(2-(2,6-dioxopiperidin-3-yl)-1,3-dioxoisoindolin-4-yl)hexanamide] are 2.8 nM and 1.1 nM.
Consider `Cc1ccc(NC(=O)c2ccc(CN3CCN(CCCCCCOCCOCCOCCCCCC(=O)N[C@H](C(=O)N4C[C@H](O)C[C@H]4C(=O)NCc4ccc(-c5scnc5C)cc4)C(C)(C)C)CC3)cc2)cc1Nc1nccc(-c2cccnc2)n1` [IMA-6-2-2-6-VHL, (2S,4R)-1-((S)-2-(tert-butyl)-22-(4-(4-((4-methyl-3-((4-(pyridin-3-yl)pyrimidin-2-yl)amino)phenyl)carbamoyl)benzyl)piperazin-1-yl)-4-oxo-10,13,16-trioxa-3-azadocosanoyl)-4-hydroxy-N-(4-(4-methylthiazol-5-yl)benzyl)pyrrolidine-2-carboxamide], for which the Kd in experiment [1] (setting [3]) was found to be 4.3 nM; in experiment [2] (setting [4]), 93 nM.
On to `Cc1ccc(NC(=O)c2ccc(CN3CCN(CCCCCCOCCOCC(=O)Nc4cccc5c4C(=O)N(C4CCC(=O)NC4=O)C5=O)CC3)cc2)cc1Nc1nccc(-c2cccnc2)n1` (stereo not shown) [IMA-6-2-2-CRBN, 4-((4-(6-(2-(2-((2-(2,6-dioxopiperidin-3-yl)-1,3-dioxoisoindolin-4-yl)amino)-2-oxoethoxy)ethoxy)hexyl)piperazin-1-yl)methyl)-N-(4-methyl-3-((4-(pyridin-3-yl)pyrimidin-2-yl)amino)phenyl)benzamide], for which the Kd was 4.7 nM in experiment [1] (setting [5]) and 72 nM in experiment [2] (setting [6]).
For `Cc1ccc(NC(=O)c2ccc(CN3CCN(CCCCCCOCCCCCOCCCCCC(=O)Nc4cccc5c4C(=O)N(C4CCC(=O)NC4=O)C5=O)CC3)cc2)cc1Nc1nccc(-c2cccnc2)n1` (stereo not shown) [IMA-6-5-6-CRBN, 4-((4-(6-((5-((6-((2-(2,6-dioxopiperidin-3-yl)-1,3-dioxoisoindolin-4-yl)amino)-6-oxohexyl)oxy)pentyl)oxy)hexyl)piperazin-1-yl)methyl)-N-(4-methyl-3-((4-(pyridin-3-yl)pyrimidin-2-yl)amino)phenyl)benzamide], in that order: 24 nM and 360 nM.
Regarding `Cc1ccc(NC(=O)c2ccc(CN3CCN(CCCCCCOCCOCCOCCOCCOCCOCC(=O)Nc4cccc5c4C(=O)N(C4CCC(=O)NC4=O)C5=O)CC3)cc2)cc1Nc1nccc(-c2cccnc2)n1` (stereo not shown) [IMA-6-(2-)5-2-CRBN, N-(2-(2,6-dioxopiperidin-3-yl)-1,3-dioxoisoindolin-4-yl)-24-(4-(4-((4-methyl-3-((4-(pyridin-3-yl)pyrimidin-2-yl)amino)phenyl)carbamoyl)benzyl)piperazin-1-yl)-3,6,9,12,15,18-hexaoxatetracosanamide], the Kd in experiment [1] (setting [5]) amounted to 3 nM; in experiment [2] (setting [6]) it was 84 nM.
`Cc1nc(Nc2ncc(C(=O)Nc3c(C)cccc3Cl)s2)cc(N2CCN(CCCCCCOCCOCC(=O)Nc3cccc4c3C(=O)N(C3CCC(=O)NC3=O)C4=O)CC2)n1` (stereo not shown) [DAS-6-2-2-CRBN, N-(2-chloro-6-methylphenyl)-2-((6-(4-(6-(2-(2-((2-(2,6-dioxopiperidin-3-yl)-1,3-dioxoisoindolin-4-yl)amino)-2-oxoethoxy)ethoxy)hexyl)piperazin-1-yl)-2-methylpyrimidin-4-yl)amino)thiazole-5-carboxamide]: the Kd in experiment [1] (setting [5]) was 0.28 nM; in experiment [2] (setting [6]), 0.19 nM.
In the same order, the values of `Cc1ccc(NC(=O)c2ccc(CN3CCN(CCCCCCOCCOCC(=O)N[C@H](C(=O)N4C[C@H](O)C[C@H]4C(=O)NCc4ccc(-c5scnc5C)cc4)C(C)(C)C)CC3)cc2)cc1Nc1nccc(-c2cccnc2)n1` [IMA-6-2-2-VHL, (2S,4R)-1-((S)-3,3-dimethyl-2-(2-(2-((6-(4-(4-((4-methyl-3-((4-(pyridin-3-yl)pyrimidin-2-yl)amino)phenyl)carbamoyl)benzyl)piperazin-1-yl)hexyl)oxy)ethoxy)acetamido)butanoyl)-4-hydroxy-N-(4-(4-methylthiazol-5-yl)benzyl)pyrrolidine-2-carboxamide] are 5.8 nM and 98 nM.
